Source: US20160058060A1, “FOOD SALT PRODUCT” (SMART SALT INC, priority 2013, published 2016)
Read-outs that look alike come from different tables or passages of the source.

Key:
[1] = cited from earlier work
[2] = aqueous solution; cited from earlier work
L. monocytogenes = test: Microbial growth/survival of L. monocytogenes in frankfurter samples; assay type: cell-based; conditions: equal dosage levels, storage 5° C., no nitrites
Experimental: No nitrites were added to the samples. […] The frankfurters were subject to sensory testing.

[3] = system: B. cereus and B. subtilis; test: Bacillus spp. counts in inoculated bread post baking; assay type: cell-based; conditions: salt level 1.2% w/w, immediately post baking and after cooling
Experimental: (§1) A salt sample according to Example 7 of the invention was used to test the microbial growth in bread. […] Inoculated and uninoculated loaves (controls) were microbiologically analyzed over 6 days storage at 21° C. and 25° C. Analysis was carried out on day 0 (post baking and after cooling), day 1, day 2 and day 6. The results highlighted two main differences between the two salt types.

[4] = system: total aerobic viable counts; test: Total aerobic viable counts in un-inoculated control bread during storage; assay type: cell-based; conditions: end of storage (Day 6), both storage temperatures (21° C. and 25° C.)
Experimental: as §1, with “Analysis was carried out on day 0 (post baking and after cooling), day 1, day 2 and day 6.” left out

What does the source list for `[Cl-].[K+]` [KCl, potassium chloride]?
Aqueous solubility ([1]; Temperature 0 °C): 21.74 mass-% of solute; Aqueous solubility ([1]; Temperature 20 °C): 25.39 mass-% of solute; Aqueous solubility ([1]; Temperature 40 °C): 28.59 mass-% of solute; Aqueous solubility ([1]; Temperature 60 °C): 31.40 mass-% of solute; Aqueous solubility ([1]; Temperature 80 °C): 33.86 mass-% of solute; Aqueous solubility ([1]; Temperature 100 °C): 36.05 mass-% of solute

Which stability constant [2] does the source give for `[Cl-].[Cl-].[Mg+2]` [MgCl2, magnesium chloride] here?
The stability constant was “zero”.

What does the source list for `[Cl-].[Na+]` [NaCl, sodium chloride]?
storage time until increase of L. monocytogenes to a count of 4 Log (L. monocytogenes): 23 days; log drop in Bacillus spp. counts [3]: up to 3.4 Log; total aerobic viable counts [4]: 10^4-10^5 cfu/g
